From patent US20260035382A1, “COMPOUNDS AS SUMO ACTIVATING ENZYME INHIBITORS” (WIGEN BIOMEDICINE TECHNOLOGY (SHANGHAI) CO., LTD., priority 2022, published 2026)
Read-outs that look alike come from different tables or passages of the source.

Experiments:
[1] = In vivo pharmacokinetic experiment, intravenous administration; conditions: CD-1 female mice, 2 mpk; for Plasma AUClast: plasma (Table 5); for C0 / clearance / half-life / AUC(0-t) / Cmax / Vd: mouse, 2 mg/kg; for Vd: read-out: Vdss
Method: CD-1 female mice aged 6 to 8 weeks were intravenously administered at a dose of 2 mg/kg. The mice were fasted for at least 12 h before the administration and given food after the administration, and they were given ad libitum access to water during the experiment. On the day of the experiment, animals in the intravenous group were administered the corresponding compound by single injection via the tail vein at an administration volume of 0.2 mL/animal. The sample collection time was 0.083 h, 0.167 h, 0.5 h, 1 h, 2 h, 4 h, 8 h, and 24 h. About 150 μL of whole blood was collected through the submaxillary venous plexus at each time point (30 μL of whole blood was diluted with ultrapure water at a ratio of 1:3, and 120 μL of whole blood was centrifuged to obtain plasma) and used for concentration determination by high-performance liquid chromatography-tandem mass spectrometry (LC-MS/MS). All animals were sacrificed after the PK samples were collected at the last time point. The plasma concentration was processed using a non-compartmental model of Phoenix WinNonlin™ version 8.3 (Certara) pharmacokinetic software, and the pharmacokinetic parameters were calculated using a linear-log trapezoidal method.

SAE = SAE (Homo sapiens (Human), UniProt Q9UBT2); assay: In vitro inhibitory activity assay against SAE (SUMO-2/3 immunofluorescence in HCT116 cells); assay type: cell-based; conditions: 6 h incubation, numeric values, read-out: SUMO IF IC50
Outline: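 HCT116 cells treated with compounds for 6 h at 37 °C, then fixed, permeabilized and immunostained for SUMO-2/3 with FITC secondary detection. Fluorescence compared with DMSO control to give inhibition rate and IC50.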

[2] = whole blood, read-out: Whole blood AUClast
[3] = whole blood, read-out: Whole blood Cmax

Chain of SAE (Q9UBT2 whole entry): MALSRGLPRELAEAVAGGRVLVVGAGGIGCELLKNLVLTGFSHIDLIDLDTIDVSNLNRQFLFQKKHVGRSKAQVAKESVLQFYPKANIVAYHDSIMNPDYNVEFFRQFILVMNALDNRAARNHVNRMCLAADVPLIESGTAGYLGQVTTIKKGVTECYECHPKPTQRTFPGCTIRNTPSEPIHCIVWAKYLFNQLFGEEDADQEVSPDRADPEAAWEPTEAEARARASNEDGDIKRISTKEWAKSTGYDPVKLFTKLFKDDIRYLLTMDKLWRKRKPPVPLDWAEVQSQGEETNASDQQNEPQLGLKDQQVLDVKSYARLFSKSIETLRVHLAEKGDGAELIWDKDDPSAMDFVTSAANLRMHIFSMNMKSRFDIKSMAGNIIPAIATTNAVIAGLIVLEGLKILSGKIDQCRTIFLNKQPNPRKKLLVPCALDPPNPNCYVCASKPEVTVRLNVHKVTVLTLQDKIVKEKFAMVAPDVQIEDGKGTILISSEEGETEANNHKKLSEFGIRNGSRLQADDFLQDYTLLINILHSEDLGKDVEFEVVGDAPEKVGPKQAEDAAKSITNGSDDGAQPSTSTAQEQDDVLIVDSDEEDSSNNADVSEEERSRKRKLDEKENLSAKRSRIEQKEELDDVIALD
Chain of SAE (Q9UBE0 whole entry partner): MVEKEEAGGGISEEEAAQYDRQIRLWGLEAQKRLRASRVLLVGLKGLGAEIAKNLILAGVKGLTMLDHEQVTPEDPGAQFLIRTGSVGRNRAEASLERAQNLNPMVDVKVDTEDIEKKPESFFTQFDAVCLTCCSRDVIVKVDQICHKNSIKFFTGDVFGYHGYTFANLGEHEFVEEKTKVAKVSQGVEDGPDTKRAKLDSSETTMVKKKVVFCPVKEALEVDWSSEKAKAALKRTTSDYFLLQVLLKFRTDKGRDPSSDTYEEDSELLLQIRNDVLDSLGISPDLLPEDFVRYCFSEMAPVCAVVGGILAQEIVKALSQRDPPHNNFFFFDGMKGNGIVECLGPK

Row | Whole blood AUClast/plasma AUClast ratio [1] | Whole blood Cmax/plasma Cmax ratio [1] | Plasma AUClast [1] [ng·h/mL] | C0 ([1]; plasma) [ng/mL] | clearance ([1]; plasma) [mL/min/kg] | half-life ([1]; plasma) [h] | AUC(0-t) ([1]; plasma, read-out: AUClast) [ng·h/mL] | Cmax ([1]; plasma, read-out: Cmax) [ng/mL] | Vd ([1]; plasma) [L/kg] | AUC(0-t) [1, 2] [ng·h/mL] | Cmax [1, 3] [ng/mL] | Compound | IC50 (SAE) [nM]
1 | 32.7 | 23.9 | 580 | 730 | 56.9 | 1.31 | 580 | 597 | 3.91 | 19000 | 14300 | NS(=O)(=O)OC[C@H]1C[C@@H](Nc2ncncc2C(=O)c2cc3c(s2)CCC[C@]32NCCc3ccc(F)cc32)C[C@@H]1O [Compound 9] | 36
2 |  |  |  | 839 | 44 | 1.32 | 749 | 719 | 3.43 |  |  | NS(=O)(=O)OC[C@H]1C[C@@H](Nc2ncncc2C(=O)c2cc3c(s2)CC[C@]32NCCc3ccc(Cl)cc32)C[C@@H]1O [Compound 48] | 41
3 | 45.9 | 17.5 | 1479 | 1610 | 21.1 | 2.17 | 1480 | 1150 | 3.03 | 67900 | 20200 | NS(=O)(=O)OC[C@H]1C[C@@H](Nc2ncncc2C(=O)c2cc3c(s2)COC[C@]32NCCc3ccc(Cl)cc32)C[C@@H]1O [Compound 21] | 87.5
4 | 39.0 | 19.7 | 881 | 1080 | 36.9 | 1.45 | 881 | 798 | 3.5 | 34400 | 15800 | NS(=O)(=O)OC[C@H]1C[C@@H](Nc2ncncc2C(=O)c2cc3c(s2)CCC[C@]32NCCc3ccc(Cl)cc32)C[C@@H]1O [Compound 6] | 27.8
